Data reported in the NIST ThermoML archive (doi:10.1016/j.jct.2008.12.005).
± gives the expanded uncertainty stated by the source.

Test: activity coefficient (dimensionless); of the first substance listed, at infinite dilution; xn = mol fraction of the nth substance listed
Conditions: 101 kPa, Liquid, Chromatography, x1 = 0

SMILES | activity coefficient (298.15 K) | activity coefficient (308.15 K) | activity coefficient (318.15 K) | activity coefficient (328.15 K) | activity coefficient (338.15 K) | activity coefficient (348.15 K) | activity coefficient (358.15 K) | activity coefficient (368.15 K)
C1CCCCCCC1 [cyclooctane] + CC[S+](CC)CC.O=S(=O)([N-]S(=O)(=O)C(F)(F)F)C(F)(F)F | 30.3 ± 2.1 | 27.2 ± 1.9 | 24.5 ± 1.7 | 22.4 ± 1.5 | 20.4 ± 1.4 | 18.7 ± 1.3 | 17.2 ± 1.2 | 16 ± 1.1
C1CCCC1 [cyclopentane] + CC[S+](CC)CC.O=S(=O)([N-]S(=O)(=O)C(F)(F)F)C(F)(F)F | 10.8 ± 0.7 | 10.1 ± 0.7 | 9.31 ± 0.64 | 8.72 ± 0.59 | 8.17 ± 0.56 | 7.7 ± 0.53 | 7.29 ± 0.5 | 6.94 ± 0.47
CCCCCCCCCC [decane] + CC[S+](CC)CC.O=S(=O)([N-]S(=O)(=O)C(F)(F)F)C(F)(F)F | 131 ± 9 | 114 ± 8 | 101 ± 7 | 89.6 ± 6.1 | 80 ± 5.5 | 72.5 ± 5 | 65.8 ± 4.5 | 59.7 ± 4.1
CCO [ethanol] + CC[S+](CC)CC.O=S(=O)([N-]S(=O)(=O)C(F)(F)F)C(F)(F)F | 2.15 ± 0.15 | 1.95 ± 0.13 | 1.77 ± 0.12 | 1.61 ± 0.11 | 1.48 ± 0.1 | 1.36 ± 0.09 | 1.27 ± 0.08 | 1.18 ± 0.08
CCc1ccccc1 [ethylbenzene] + CC[S+](CC)CC.O=S(=O)([N-]S(=O)(=O)C(F)(F)F)C(F)(F)F | 2.42 ± 0.16 | 2.43 ± 0.17 | 2.43 ± 0.17 | 2.44 ± 0.17 | 2.44 ± 0.17 | 2.45 ± 0.17 | 2.45 ± 0.17 | 2.45 ± 0.17
CCCCCCC [heptane] + CC[S+](CC)CC.O=S(=O)([N-]S(=O)(=O)C(F)(F)F)C(F)(F)F | 40.4 ± 2.8 | 36.9 ± 2.5 | 33.5 ± 2.3 | 30.5 ± 2.1 | 28.1 ± 1.9 | 26 ± 1.8 | 24.1 ± 1.6 | 22.5 ± 1.5
C=CCCCC [hex-1-ene] + CC[S+](CC)CC.O=S(=O)([N-]S(=O)(=O)C(F)(F)F)C(F)(F)F | 12.5 ± 0.9 | 11.8 ± 0.8 | 11.3 ± 0.8 | 10.6 ± 0.7 | 10.1 ± 0.7 | 9.69 ± 0.66 | 9.3 ± 0.63 | 8.94 ± 0.61
CCCCCC [hexane] + CC[S+](CC)CC.O=S(=O)([N-]S(=O)(=O)C(F)(F)F)C(F)(F)F | 28.6 ± 2 | 26.2 ± 1.8 | 24 ± 1.6 | 22.1 ± 1.5 | 20.7 ± 1.4 | 19.2 ± 1.3 | 18 ± 1.2 | 16.9 ± 1.2
CO [methanol] + CC[S+](CC)CC.O=S(=O)([N-]S(=O)(=O)C(F)(F)F)C(F)(F)F | 1.62 ± 0.11 | 1.48 ± 0.1 | 1.35 ± 0.09 | 1.25 ± 0.08 | 1.15 ± 0.07 | 1.07 ± 0.07 | 1 ± 0.06 | 0.935 ± 0.059
CCCCCCCCC [nonane] + CC[S+](CC)CC.O=S(=O)([N-]S(=O)(=O)C(F)(F)F)C(F)(F)F | 87.2 ± 6 | 77.6 ± 5.3 | 68.6 ± 4.7 | 61.8 ± 4.2 | 55.5 ± 3.8 | 50.5 ± 3.5 | 46 ± 3.1 | 42.4 ± 2.9
C=CCCCCCC [oct-1-ene] + CC[S+](CC)CC.O=S(=O)([N-]S(=O)(=O)C(F)(F)F)C(F)(F)F | 27 ± 1.8 | 25 ± 1.7 | 23.2 ± 1.6 | 21.8 ± 1.5 | 20.4 ± 1.4 | 19.2 ± 1.3 | 18.2 ± 1.2 | 17.3 ± 1.2
CCCCCCCC [octane] + CC[S+](CC)CC.O=S(=O)([N-]S(=O)(=O)C(F)(F)F)C(F)(F)F | 59.6 ± 4.1 | 53.3 ± 3.7 | 47.9 ± 3.3 | 43.6 ± 3 | 39.6 ± 2.7 | 36.3 ± 2.5 | 33.5 ± 2.3 | 30.8 ± 2.1
CCCCC [pentane] + CC[S+](CC)CC.O=S(=O)([N-]S(=O)(=O)C(F)(F)F)C(F)(F)F | 21.6 ± 1.5 | 19.9 ± 1.4 | 18.3 ± 1.3 | 16.8 ± 1.1 | 15.6 ± 1.1 | 14.6 ± 1 | 13.5 ± 0.9 | 12.7 ± 0.9
